Test results reported in patent US9150531B2, “Tricyclic lactones for treatment of cancer” (Glactone Pharma Development AB, priority 2010, dated 2015).
Read-outs that look alike come from different tables or passages of the source.

Tests used:
DU145 = test: WST-1 proliferation assay, DU145 cells (Example 16); format: cell-based, human
Experimental: (§1) The human prostate cancer cell lines DU145, LNCaP (from the American Type culture Collection, ATCC) and long-term interleukin-6 (IL-6) stimulated LNCaP cells (LNCaP-IL6 cells) (Hobisch, Ramoner et al. 2001) were used. The cells were cultured in RPMI 1640 medium supplemented with 10% FBS and 1% penicillin-streptomycin. All cells were incubated at 37° C. in a humidified atmosphere of […] and 5% CO2.
(§2) WST-1 proliferation assay was performed to study the effects of the test items on the proliferation and viability of cultured prostate cancer cells. LNCaP and DU145 cells were cultured in 96-well plates at the density of 2 000 cells/well in 200 μl of medium. Cells were allowed to set for 24 h. The cells were treated with 0, 2.5, 5 or 10 μM of the specific substance for 24 h and 48 h. Samples were made in triplicate. 20 μl WST-1 solution (Roche Applied Science, Mannheim, Germany) was added per well and incubated at 37° C. for 4 h. The absorbance of each well was measured using a scanning multiwell spectrophotometer, ELISA reader at a wavelength of 450 nm and reference wavelength of 690 nm. The results are presented as percent of untreated control cells or the absorbance value.

LNCaP-IL6 cells = test: WST-1 proliferation assay, LNCaP-IL6 cells; format: cell-based, human
Experimental: as §1, §2

[1] = tested on: STAT-3 transcription factor; test: STAT3 inhibition, luciferase reporter (4xM67 pTATA TK-Luc) in HeLa cells stimulated with γ-Interferon; format: cell-based; conditions: γ-Interferon 8 h, luciferase activity, read-out: Anti STAT3 IC50
Experimental: HeLa cells (4×10^4/ml) were transiently transfected with a luciferase reporter plasmid (4×M67 pTATA TK-Luc) driven by artificial promoter containing 4 repeated M67 binding sites in tandem for the STAT-3 transcription factor. The transfections were performed for 24 h using Roti-Fect reagent (Carl Roth, Karlsruhe, Germany) according to the manufacturer's recommendations. After incubation with different concentrations of the extracts for 30 min the transfected cells were stimulated for 8 h with γ-Interferon. Then, the cells were lysed in 25 mM Tris-phosphate pH 7.8, 8 mM MgCl2, 1 mM DTT, 1% Triton X-100, and 7% glycerol. Luciferase activity was measured as described for 5.1 cells.
γ-Interferon induces an average of 5-6 fold induction of the luciferase activity compared to non stimulated cells and this represent the index of transactivation that is represented in our experiment as the maximum levels of γ-Interferon-induced STAT-3 activation (100%). Results below represent the IC50 for each compound in this assay. The IC50 means the concentration of each compound that reduces luciferase activity by 50% and it was calculated by GraphPad software.

NF-κB = test: NF-κB-dependent transcriptional activity, Jurkat-LTR-Luc (Jurkat 5.1) cells stimulated with TNF-α; format: cell-based; conditions: TNF-α (2 ng/ml) 6 h, luciferase activity, read-out: IC50 anti-NF-κB
Experimental: The potency of (−)-Galiellalactone and compound examples of the invention in inhibiting NF-κB-dependent transcriptional activity was assayed in a Jurkat-LTR-Luc cell line. This cellular model have been widely used for the screening of natural and synthetic NF-κB inhibitors (Appendino et al, J Nat Prod. 2007, 70(4), 608-612; J Nat Prod. 2006, 69(7), 1101-1104; Marquez et al, Antiviral Res. 2005, 66(2-3), 137-145) Jurkat 5.1 cells were preincubated for 30 min with increasing concentrations of the compounds dissolved in DMSO followed by stimulation with TNF-α (2 ng/ml) for 6 h. Cells were washed twice in PBS and lysed in 25 mM Tris-phosphate, pH 7.8, 8 mM MgCl2, 1 mM DTT, 1% Triton X-100, and 7% glycerol for 15 min at room temperature. Then the lysates were spun down and the supernatant was used to measure luciferase activity using an Autolumat LB 9510 (Berthold Technologies). Protein concentration was determined by the Bradford method (Bio-Rad, Richmond, Calif.). Results below represent the 1050 for each compound in this assay.

IL-6/STAT3 signaling = conditions: background statement; cited from earlier work

C[C@H]1C=C2C(=O)OC3[C@H](Cc4ccccc4)C[C@H](C1)[C@]23O (stereo partly drawn) [Example 3, 7-benzyl-2a^1-hydroxy-4-methyl-4,5,5a,6,7,7a-hexahydroindeno[1,7-bc]furan-2(2a^1H)-one]
% Proliferation (vs control) 24 h DU145 (DU145; 2.5 uM): 56.33%
% Proliferation (vs control) 48 h Du145 (DU145; 2.5 uM): 31.10%
% Proliferation (vs control) 24 h DU145 (DU145; 5 uM): 52.11%
% Proliferation (vs control) 48 h Du145 (DU145; 5 uM): 18.38%
% Proliferation (vs control) 24 h DU145 (DU145; 10 uM): 44.48%
% Proliferation (vs control) 48 h Du145 (DU145; 10 uM): 14.45%
% Proliferation (vs control) 24 h LNCaP-IL6 (LNCaP-IL6 cells; 2.5 uM): 57.10%
% Proliferation (vs control) 48 h LNCaP-IL6 (LNCaP-IL6 cells; 2.5 uM): 27.82%
% Proliferation (vs control) 24 h LNCaP-IL6 (LNCaP-IL6 cells; 5 uM): 59.00%
% Proliferation (vs control) 48 h LNCaP-IL6 (LNCaP-IL6 cells; 5 uM): 18.15%
% Proliferation (vs control) 24 h LNCaP-IL6 (LNCaP-IL6 cells; 10 uM): 53.01%
% Proliferation (vs control) 48 h LNCaP-IL6 (LNCaP-IL6 cells; 10 uM): 12.49%
IC50 ([1]; Homo sapiens): 2870 nM
IC50 (NF-κB; Homo sapiens): 1260 nM

C[C@@H]1C=C2C(=O)O[C@@H]3CC[C@H](C1)C23O (single isomer, unassigned; (-)) [(−)-Galiellalactone, reference compound]
% Proliferation (vs control) 24 h DU145 (DU145; 2.5 uM): 84.24%
% Proliferation (vs control) 48 h Du145 (DU145; 2.5 uM): 76.36%
% Proliferation (vs control) 24 h DU145 (DU145; 5 uM): 63.19%
% Proliferation (vs control) 48 h Du145 (DU145; 5 uM): 38.51%
% Proliferation (vs control) 24 h DU145 (DU145; 10 uM): 48.44%
% Proliferation (vs control) 48 h Du145 (DU145; 10 uM): 22.24%
inhibition of IL-6/STAT3 signaling (IL-6/STAT3 signaling): submicromolar
% Proliferation (vs control) 24 h LNCaP-IL6 (LNCaP-IL6 cells; 2.5 uM): 90.91%
% Proliferation (vs control) 48 h LNCaP-IL6 (LNCaP-IL6 cells; 2.5 uM): 96.78%
% Proliferation (vs control) 24 h LNCaP-IL6 (LNCaP-IL6 cells; 5 uM): 68.76%
% Proliferation (vs control) 48 h LNCaP-IL6 (LNCaP-IL6 cells; 5 uM): 68.76%
% Proliferation (vs control) 24 h LNCaP-IL6 (LNCaP-IL6 cells; 10 uM): 77.11%
% Proliferation (vs control) 48 h LNCaP-IL6 (LNCaP-IL6 cells; 10 uM): 23.22%
IC50 [1]: 7700 nM
IC50 (NF-κB): 5500 nM

C[C@H]1C=C2C(=O)OC3C(C)(C)C[C@H](C1)[C@]23O (stereo partly drawn) [Example 1, 2a^1-hydroxy-4,7,7-trimethyl-4,5,5a,6,7,7a-hexahydroindeno[1,7-bc]furan-2(2a^1H)-one]
% Proliferation (vs control) 24 h DU145 (DU145; 2.5 uM): 80.19%
% Proliferation (vs control) 48 h Du145 (DU145; 2.5 uM): 67.45%
% Proliferation (vs control) 24 h DU145 (DU145; 5 uM): 68.82%
% Proliferation (vs control) 48 h Du145 (DU145; 5 uM): 35.62%
% Proliferation (vs control) 24 h DU145 (DU145; 10 uM): 54.07%
% Proliferation (vs control) 48 h Du145 (DU145; 10 uM): 22.77%
% Proliferation (vs control) 24 h LNCaP-IL6 (LNCaP-IL6 cells; 2.5 uM): 65.41%
% Proliferation (vs control) 48 h LNCaP-IL6 (LNCaP-IL6 cells; 2.5 uM): 52.42%
% Proliferation (vs control) 24 h LNCaP-IL6 (LNCaP-IL6 cells; 5 uM): 68.95%
% Proliferation (vs control) 48 h LNCaP-IL6 (LNCaP-IL6 cells; 5 uM): 26.28%
% Proliferation (vs control) 24 h LNCaP-IL6 (LNCaP-IL6 cells; 10 uM): 69.23%
% Proliferation (vs control) 48 h LNCaP-IL6 (LNCaP-IL6 cells; 10 uM): 16.19%
IC50 ([1]; Homo sapiens): 2100 nM
IC50 (NF-κB; Homo sapiens): 2660 nM

C[C@H]1C=C2C(=O)OC3[C@H](c4ccccc4)C[C@H](C1)[C@]23O (stereo partly drawn) [Example 2, 2a^1-hydroxy-4-methyl-7-phenyl-4,5,5a,6,7,7a-hexahydroindeno[1,7-bc]furan-2(2a^1H)-one]
% Proliferation (vs control) 24 h DU145 (DU145; 2.5 uM): 90.64%
% Proliferation (vs control) 48 h Du145 (DU145; 2.5 uM): 68.04%
% Proliferation (vs control) 24 h DU145 (DU145; 5 uM): 68.55%
% Proliferation (vs control) 48 h Du145 (DU145; 5 uM): 34.07%
% Proliferation (vs control) 24 h DU145 (DU145; 10 uM): 63.86%
% Proliferation (vs control) 48 h Du145 (DU145; 10 uM): 30.26%
% Proliferation (vs control) 24 h LNCaP-IL6 (LNCaP-IL6 cells; 2.5 uM): 81.79%
% Proliferation (vs control) 48 h LNCaP-IL6 (LNCaP-IL6 cells; 2.5 uM): 79.56%
% Proliferation (vs control) 24 h LNCaP-IL6 (LNCaP-IL6 cells; 5 uM): 81.21%
% Proliferation (vs control) 48 h LNCaP-IL6 (LNCaP-IL6 cells; 5 uM): 57.14%
% Proliferation (vs control) 24 h LNCaP-IL6 (LNCaP-IL6 cells; 10 uM): 70.45%
% Proliferation (vs control) 48 h LNCaP-IL6 (LNCaP-IL6 cells; 10 uM): 20.19%
IC50 ([1]; Homo sapiens): 1180 nM
IC50 (NF-κB; Homo sapiens): 330 nM
